From paper PMC9135731 (Communications Biology, 2022)

Assays:
AviM = target: T1, AviM (Streptomyces viridochromogenes, UniProt O05170); assay: LC-MS detection of orsellinic acid product; assay type: biochemical; conditions: 50 uM enzyme, 10 mM MgCl2, pH 7.4, 25 °C, with CoA and Sfp
T1 construct: expressed in E. coli BAP1 (sfp), phosphopantetheinylated with CoA and Sfp before assay

[1] = target: the molecule itself; assay: SEC; Superdex 200/Superose 6 gel filtration column, 150 mM NaCl, 10 mM Tris pH 7.5, 4 °C

T1 sequence (O05170 entry or part of it): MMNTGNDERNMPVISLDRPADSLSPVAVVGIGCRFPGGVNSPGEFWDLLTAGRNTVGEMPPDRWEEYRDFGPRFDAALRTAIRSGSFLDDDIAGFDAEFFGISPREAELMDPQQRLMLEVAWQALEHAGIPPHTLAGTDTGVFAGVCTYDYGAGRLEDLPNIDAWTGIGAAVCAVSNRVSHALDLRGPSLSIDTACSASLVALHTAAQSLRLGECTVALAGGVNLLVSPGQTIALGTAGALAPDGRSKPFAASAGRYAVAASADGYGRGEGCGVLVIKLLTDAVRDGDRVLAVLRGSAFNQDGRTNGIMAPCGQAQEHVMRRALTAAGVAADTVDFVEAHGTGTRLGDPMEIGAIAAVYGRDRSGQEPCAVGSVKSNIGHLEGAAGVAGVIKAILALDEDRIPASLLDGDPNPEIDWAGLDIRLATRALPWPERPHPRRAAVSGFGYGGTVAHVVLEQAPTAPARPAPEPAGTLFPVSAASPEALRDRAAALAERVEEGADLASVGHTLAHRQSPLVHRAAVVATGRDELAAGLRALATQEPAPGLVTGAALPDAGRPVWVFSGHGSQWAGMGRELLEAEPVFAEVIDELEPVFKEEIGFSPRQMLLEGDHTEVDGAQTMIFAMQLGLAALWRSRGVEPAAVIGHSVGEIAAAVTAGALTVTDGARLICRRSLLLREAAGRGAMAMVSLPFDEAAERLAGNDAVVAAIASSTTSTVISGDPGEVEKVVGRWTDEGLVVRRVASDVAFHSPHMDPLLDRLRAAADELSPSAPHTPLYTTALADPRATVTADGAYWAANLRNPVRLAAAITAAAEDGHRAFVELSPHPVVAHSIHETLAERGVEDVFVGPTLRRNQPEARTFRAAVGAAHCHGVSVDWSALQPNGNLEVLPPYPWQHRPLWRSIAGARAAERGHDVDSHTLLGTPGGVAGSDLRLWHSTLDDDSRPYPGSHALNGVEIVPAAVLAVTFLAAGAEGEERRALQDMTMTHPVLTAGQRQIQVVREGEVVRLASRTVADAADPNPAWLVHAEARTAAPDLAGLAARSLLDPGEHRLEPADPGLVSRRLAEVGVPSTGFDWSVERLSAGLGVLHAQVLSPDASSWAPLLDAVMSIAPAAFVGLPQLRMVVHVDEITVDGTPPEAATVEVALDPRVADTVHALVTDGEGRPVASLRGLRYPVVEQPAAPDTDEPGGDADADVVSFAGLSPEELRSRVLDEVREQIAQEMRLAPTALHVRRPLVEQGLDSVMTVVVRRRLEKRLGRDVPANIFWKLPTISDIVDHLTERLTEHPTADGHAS

## CC(=O)SCCNC(=O)CCNC(=O)[C@H](O)C(C)(C)COP(=O)(O)OP(=O)(O)OC[C@H]1O[C@@H](n2cnc3c(N)ncnc32)[C@H](O)[C@@H]1OP(=O)(O)O [acetyl-CoA]
AviM; starter unit, malonyl-CoA co-substrate
  LC-MS detection of orsellinic acid product: Trace amount of OSA was indeed produced when AviM was incubated with acetyl-CoA and malonyl-CoA

## CC(C)(COP(=O)(O)OP(=O)(O)OC[C@H]1O[C@@H](n2cnc3c(N)ncnc32)[C@H](O)[C@@H]1OP(=O)(O)O)[C@@H](O)C(=O)NCCC(=O)NCCSC(=O)CC(=O)O [malonyl-CoA]
AviM; extender unit, acetyl-CoA co-substrate
  LC-MS detection of orsellinic acid product: Trace amount of OSA was indeed produced when AviM was incubated with acetyl-CoA and malonyl-CoA

B1: AviM PT domain (product template domain of the orsellinic acid synthase AviM) (domain or fragment, Streptomyces viridochromogenes Tü57)
chain: DSHTLLGTPGGVAGSDLRLWHSTLDDDSRPYPGSHALNGVEIVPAAVLAVTFLAAGAEGEERRALQDMTMTHPVLTAGQRQIQVVREGEVVRLASRTVADAADPNPAWLVHAEARTAAPDLAGLAARSLLDPGEHRLEPADPGLVSRRLAEVGVPSTGFDWSVERLSAGLGVLHAQVLSPDASSWAPLLDAVMSIAPAAFVGLPQLRMVVHVDEITVDGTPPEAATVEVALDPRVADTVHALVTDGEGRPVASLRGLRYP
notes: AviM, orsellinic acid synthase (iterative type I PKS, KS-AT-PT-ACP) of Streptomyces viridochromogenes Tü57; excised PT domain cloned as an 816 bp NdeI/EcoRI fragment in pET28a; An 816 bp fragment codes for about 272 residues, more than the 260 of residues 915-1174; also called bacterial PT domain; source: E. coli BL21(DE3), purified (Nickel-NTA, gel filtration); not shown: His6, N-terminal, kept
[1]
  stoichiometry N: 2
